Assay results taken from paper PMC6437697 (Journal of Medicinal Chemistry, 2019).

What was measured:
Assay in all cases: KINOMEscan
Type in all cases: binding
Conditions in all cases: read-out: % control activity remaining
ARK5 = molecular target: T1, ARK5 (Homo sapiens, UniProt O60285)
T1 construct: purchased Eurofins DiscoverX KINOMEscan
T1 sequence (O60285 1-661): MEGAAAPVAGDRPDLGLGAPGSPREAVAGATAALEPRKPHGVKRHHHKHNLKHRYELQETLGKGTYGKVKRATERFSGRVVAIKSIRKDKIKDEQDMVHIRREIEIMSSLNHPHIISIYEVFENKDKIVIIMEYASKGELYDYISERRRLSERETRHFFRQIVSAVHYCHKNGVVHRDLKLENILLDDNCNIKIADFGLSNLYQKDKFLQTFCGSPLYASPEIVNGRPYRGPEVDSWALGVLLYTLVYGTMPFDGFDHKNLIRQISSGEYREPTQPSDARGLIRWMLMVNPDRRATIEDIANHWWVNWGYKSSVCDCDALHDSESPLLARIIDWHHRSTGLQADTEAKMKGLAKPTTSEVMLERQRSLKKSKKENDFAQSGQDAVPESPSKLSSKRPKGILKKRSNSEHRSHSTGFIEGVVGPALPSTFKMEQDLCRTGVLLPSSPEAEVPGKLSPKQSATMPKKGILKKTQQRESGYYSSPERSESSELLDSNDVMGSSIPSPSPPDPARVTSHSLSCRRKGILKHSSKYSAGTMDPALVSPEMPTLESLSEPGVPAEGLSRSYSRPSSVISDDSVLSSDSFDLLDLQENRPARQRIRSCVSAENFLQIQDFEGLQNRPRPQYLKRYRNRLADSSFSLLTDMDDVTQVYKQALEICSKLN

BMPR1A = molecular target: T2, BMPR1A (Homo sapiens, UniProt P36894)
T2 construct: purchased Eurofins DiscoverX KINOMEscan
T2 sequence (P36894 24-532): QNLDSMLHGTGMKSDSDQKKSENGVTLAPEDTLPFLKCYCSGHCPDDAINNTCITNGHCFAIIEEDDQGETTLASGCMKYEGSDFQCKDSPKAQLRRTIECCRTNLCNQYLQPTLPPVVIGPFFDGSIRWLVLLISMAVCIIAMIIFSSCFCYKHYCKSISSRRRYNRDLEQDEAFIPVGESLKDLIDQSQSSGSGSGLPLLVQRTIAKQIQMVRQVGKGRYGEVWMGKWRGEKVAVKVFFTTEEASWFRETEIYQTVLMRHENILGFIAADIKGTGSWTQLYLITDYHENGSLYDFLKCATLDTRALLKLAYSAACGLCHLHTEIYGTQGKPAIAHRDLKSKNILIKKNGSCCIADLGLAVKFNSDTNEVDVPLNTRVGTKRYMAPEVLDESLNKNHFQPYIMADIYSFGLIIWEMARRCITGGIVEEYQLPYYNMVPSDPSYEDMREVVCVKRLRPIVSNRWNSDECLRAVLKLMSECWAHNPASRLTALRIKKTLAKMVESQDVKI

MAPKAPK5 = molecular target: T3, MAPKAPK5 (Homo sapiens, UniProt Q8IW41)
T3 construct: purchased Eurofins DiscoverX KINOMEscan
T3 sequence (Q8IW41 1-473): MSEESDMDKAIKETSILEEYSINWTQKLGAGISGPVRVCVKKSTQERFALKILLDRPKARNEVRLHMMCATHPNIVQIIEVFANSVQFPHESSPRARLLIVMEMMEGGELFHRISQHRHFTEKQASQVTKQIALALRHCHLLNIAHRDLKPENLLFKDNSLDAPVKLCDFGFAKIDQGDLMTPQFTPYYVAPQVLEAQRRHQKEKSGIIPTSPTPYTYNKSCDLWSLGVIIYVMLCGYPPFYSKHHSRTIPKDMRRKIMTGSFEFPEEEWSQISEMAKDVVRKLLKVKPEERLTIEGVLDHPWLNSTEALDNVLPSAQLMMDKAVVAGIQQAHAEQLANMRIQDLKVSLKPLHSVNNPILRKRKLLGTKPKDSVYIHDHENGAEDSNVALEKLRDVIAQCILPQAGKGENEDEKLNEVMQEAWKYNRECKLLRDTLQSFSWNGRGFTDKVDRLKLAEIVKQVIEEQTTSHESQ

MST2 = molecular target: T4, MST2 (Homo sapiens, UniProt Q13188)
T4 construct: purchased Eurofins DiscoverX KINOMEscan
T4 sequence (Q13188 1-491): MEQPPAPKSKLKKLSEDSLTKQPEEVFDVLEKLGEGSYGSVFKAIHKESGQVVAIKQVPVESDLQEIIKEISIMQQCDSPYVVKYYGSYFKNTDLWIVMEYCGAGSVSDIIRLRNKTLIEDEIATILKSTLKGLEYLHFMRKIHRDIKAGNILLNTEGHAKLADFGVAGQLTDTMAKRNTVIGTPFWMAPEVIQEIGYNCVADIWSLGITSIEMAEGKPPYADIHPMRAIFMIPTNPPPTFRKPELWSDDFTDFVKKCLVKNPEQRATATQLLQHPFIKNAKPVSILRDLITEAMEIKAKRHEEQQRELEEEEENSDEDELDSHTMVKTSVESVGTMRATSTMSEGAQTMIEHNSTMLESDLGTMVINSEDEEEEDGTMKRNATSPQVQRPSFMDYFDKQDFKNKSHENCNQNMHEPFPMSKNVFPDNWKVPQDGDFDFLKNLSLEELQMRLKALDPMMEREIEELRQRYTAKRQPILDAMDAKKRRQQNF

TAOK1 = molecular target: T5, TAOK1 (Homo sapiens, UniProt Q7L7X3)
T5 construct: purchased Eurofins DiscoverX KINOMEscan
T5 sequence (Q7L7X3 1-1001): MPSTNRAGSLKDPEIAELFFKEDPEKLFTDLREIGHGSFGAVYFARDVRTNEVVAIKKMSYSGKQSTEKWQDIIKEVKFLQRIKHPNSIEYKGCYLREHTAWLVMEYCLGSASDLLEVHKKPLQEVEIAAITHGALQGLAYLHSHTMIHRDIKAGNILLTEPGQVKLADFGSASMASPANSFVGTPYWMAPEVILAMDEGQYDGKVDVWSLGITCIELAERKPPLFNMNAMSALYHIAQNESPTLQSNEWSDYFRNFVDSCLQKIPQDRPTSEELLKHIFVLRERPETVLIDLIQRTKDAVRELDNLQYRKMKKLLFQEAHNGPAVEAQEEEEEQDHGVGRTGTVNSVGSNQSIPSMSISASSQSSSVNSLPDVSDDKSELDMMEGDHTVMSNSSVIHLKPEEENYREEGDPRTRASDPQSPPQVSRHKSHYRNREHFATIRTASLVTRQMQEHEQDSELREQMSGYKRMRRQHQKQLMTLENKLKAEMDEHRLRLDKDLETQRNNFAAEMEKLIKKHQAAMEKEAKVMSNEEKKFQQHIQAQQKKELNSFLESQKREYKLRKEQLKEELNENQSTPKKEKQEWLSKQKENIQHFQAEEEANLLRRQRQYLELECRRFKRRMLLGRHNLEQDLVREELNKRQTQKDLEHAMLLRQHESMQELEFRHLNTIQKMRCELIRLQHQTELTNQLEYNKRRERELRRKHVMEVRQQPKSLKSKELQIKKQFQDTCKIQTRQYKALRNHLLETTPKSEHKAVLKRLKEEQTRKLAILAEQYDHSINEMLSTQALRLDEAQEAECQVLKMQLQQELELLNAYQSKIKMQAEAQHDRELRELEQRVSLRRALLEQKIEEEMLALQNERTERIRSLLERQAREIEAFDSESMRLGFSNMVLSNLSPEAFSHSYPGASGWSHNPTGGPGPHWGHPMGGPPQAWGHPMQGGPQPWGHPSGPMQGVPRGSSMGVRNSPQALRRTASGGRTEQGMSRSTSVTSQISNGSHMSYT

Structure (SMILES) | remaining binding at 1 µM (ARK5) [%] | remaining binding at 1 µM (BMPR1A) [%] | remaining binding at 1 µM (MAPKAPK5) [%] | remaining binding at 1 µM (MST2) [%] | remaining binding at 1 µM (TAOK1) [%]
Clc1cc(NCC2CC2)c2ncc(-c3ccc4[nH]ncc4c3)n2n1 [compound 2, 6-Chloro-N-(cyclopropylmethyl)-3-(1H-indazol-5-yl)imidazo[1,2-b]pyridazin-8-amine] | 99 | 95 | 91 | 85 | 93
O=C(CN1CCOCC1)N[C@H]1CC[C@H](Nc2cc(Cl)nn3c(-c4ccc5[nH]ncc5c4)cnc23)CC1 [compound 26] | 100 | 86 | 98 | 92 | 85
CN1CCC(CNc2cc(Cl)nn3c(-c4cc5nc(Nc6ccccc6)[nH]c5cc4F)cnc23)CC1 [compound 31, 6-Chloro-3-(6-fluoro-2-(phenylamino)-1H-benzo[d]imidazol-5-yl)-N-((1-methylpiperidin-4-yl)methyl)imidazo[1,2-b]pyridazin-8-amine] | 100 | 100 | 82 | 100 | 75
